Consider 14 compounds from ChEMBL document CHEMBL1201862, “PubChem BioAssay data set” (2004).

Active and inactive are the calls of the source. A value given as a limit tells only on which side of the number the result lay.

A short description of test [1]: P. falciparum late gametocyte killing, dose response, luminescence (AID 1117278).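 Note: gametocytes exposed to compound for 24 hours.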 Type of test: functional, cell-based.
Test [2] in a line: Jurkat T cell cytotoxicity, dose response, cytotoxicity control for P. falciparum gametocyte viability project, luminescence (AID 1117277).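 Note: potency reflects loss of cellular ATP meaning fewer viable cells.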 It is filed as functional, cell-based.
In test [3] the target is T1, Bcl-2-related protein A1 (Mus musculus, UniProt Q07440).
T1 sequence (Q07440 whole entry): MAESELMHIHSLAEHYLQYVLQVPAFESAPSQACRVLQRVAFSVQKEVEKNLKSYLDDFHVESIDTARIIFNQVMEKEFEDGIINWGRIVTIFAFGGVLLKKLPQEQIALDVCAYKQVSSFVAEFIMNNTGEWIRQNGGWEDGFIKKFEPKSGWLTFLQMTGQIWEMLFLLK
In words: Bfl-1 inhibitors blocking BH3 peptide binding, confirmation, biochemical, TR-FRET, mouse Bfl-1 (AID 621).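 Note: TR-FRET binding of GST-Bfl-1 to FITC-labelled Bid peptide via terbium antibody.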

Test [4] addresses T1, Bcl-2-related protein A1. The experiment in a line: Bfl-1 inhibitors, primary screen, biochemical, fluorescence polarization, FITC-Bid, mouse (AID 432).
Test [5] concerns the target Bifunctional protein GlmU (Mycobacterium tuberculosis, UniProt P9WMN3). In words: Inhibitors of Mycobacterial Glucosamine-1-phosphate acetyl transferase (GlmU). Secondary screen. Also noted: species or system Mycobacterium tuberculosis H37Rv.
For test [6], the target named is Sphingosine 1-phosphate receptor 2 (Homo sapiens, UniProt O95136). The experiment in a line: Dose Response Cell Based Assay for Antagonists of the S1P2 Receptor. [Related pubchem assays: 856, 736 ]. Type of test: functional.
Sequence of Sphingosine 1-phosphate receptor 2 (O95136 whole entry): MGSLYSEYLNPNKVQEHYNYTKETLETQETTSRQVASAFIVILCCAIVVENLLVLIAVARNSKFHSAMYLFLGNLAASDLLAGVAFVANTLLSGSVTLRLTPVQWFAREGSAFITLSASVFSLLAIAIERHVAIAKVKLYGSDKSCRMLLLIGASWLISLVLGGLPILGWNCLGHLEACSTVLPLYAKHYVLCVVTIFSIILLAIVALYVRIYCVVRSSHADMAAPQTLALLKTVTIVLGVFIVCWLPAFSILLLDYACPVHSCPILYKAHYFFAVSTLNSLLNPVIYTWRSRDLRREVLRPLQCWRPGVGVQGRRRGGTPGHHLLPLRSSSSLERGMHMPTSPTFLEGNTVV
In the next test the target is 14-3-3 protein gamma (Homo sapiens, UniProt P61981). In words: modulators of 14-3-3 gamma client binding – dose response (AID 711). Type of test: functional.
Sequence of 14-3-3 protein gamma (P61981 whole entry): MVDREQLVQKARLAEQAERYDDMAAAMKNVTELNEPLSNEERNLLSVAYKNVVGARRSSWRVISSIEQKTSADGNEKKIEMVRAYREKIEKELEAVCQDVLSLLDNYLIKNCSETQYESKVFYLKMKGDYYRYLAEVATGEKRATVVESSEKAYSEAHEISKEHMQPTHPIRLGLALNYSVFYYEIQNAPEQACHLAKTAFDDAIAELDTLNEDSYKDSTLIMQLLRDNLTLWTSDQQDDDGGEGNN
Test [7] has as its target Mitogen-activated protein kinase 10 (Homo sapiens, UniProt P53779). In words: Dose response biochemical screening assay for inhibitors of c-Jun N-Terminal Kinase 3 (JNK3). [Related pubchem assays: 746 ].
For another test, the system named is Vero. The experiment in a line: cytotoxicity of synthesized analogs in Vero cells, SAR follow-up, cytotoxicity control for West Nile virus antiviral project, cell-based, set II (AID 2402). Type of test: functional. To be noted: Chlorocebus sabaeus.
Test [8] has as its target Melanin-concentrating hormone receptor 1 (Homo sapiens, UniProt Q99705). The experiment in a line: Fluorescence-based counterscreen for antagonists of the G-protein coupled receptor 7 (GPR7): cell-based high throughput dose response assay to identify antagonists of the melanin-concentrating hormone receptor 1 (MCHR1). It is filed as functional.
Test [9] addresses T2, Neuropeptides B/W receptor type 1 (Homo sapiens, UniProt P48145).
T2 sequence (P48145 whole entry): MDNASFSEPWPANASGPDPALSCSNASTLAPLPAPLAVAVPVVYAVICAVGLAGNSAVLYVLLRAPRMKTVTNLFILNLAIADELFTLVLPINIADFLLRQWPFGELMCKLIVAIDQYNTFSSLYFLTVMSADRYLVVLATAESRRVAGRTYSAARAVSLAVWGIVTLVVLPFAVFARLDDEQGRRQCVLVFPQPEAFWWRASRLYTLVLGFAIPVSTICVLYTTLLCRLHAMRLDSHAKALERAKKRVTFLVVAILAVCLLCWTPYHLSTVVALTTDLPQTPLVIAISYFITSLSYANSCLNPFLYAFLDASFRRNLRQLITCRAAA
In words: Fluorescence-based dose response cell-based high throughput screening assay to identify antagonists of the G-protein coupled receptor 7 (GPR7). [Related pubchem assays: 1952 (Screening assay (GPR7 antagonists).), 1880 (Summary AID.)]. It is filed as functional.

The target of test [10] is T3, High affinity choline transporter 1 (Homo sapiens, UniProt Q9GZV3).
T3 sequence (Q9GZV3 whole entry): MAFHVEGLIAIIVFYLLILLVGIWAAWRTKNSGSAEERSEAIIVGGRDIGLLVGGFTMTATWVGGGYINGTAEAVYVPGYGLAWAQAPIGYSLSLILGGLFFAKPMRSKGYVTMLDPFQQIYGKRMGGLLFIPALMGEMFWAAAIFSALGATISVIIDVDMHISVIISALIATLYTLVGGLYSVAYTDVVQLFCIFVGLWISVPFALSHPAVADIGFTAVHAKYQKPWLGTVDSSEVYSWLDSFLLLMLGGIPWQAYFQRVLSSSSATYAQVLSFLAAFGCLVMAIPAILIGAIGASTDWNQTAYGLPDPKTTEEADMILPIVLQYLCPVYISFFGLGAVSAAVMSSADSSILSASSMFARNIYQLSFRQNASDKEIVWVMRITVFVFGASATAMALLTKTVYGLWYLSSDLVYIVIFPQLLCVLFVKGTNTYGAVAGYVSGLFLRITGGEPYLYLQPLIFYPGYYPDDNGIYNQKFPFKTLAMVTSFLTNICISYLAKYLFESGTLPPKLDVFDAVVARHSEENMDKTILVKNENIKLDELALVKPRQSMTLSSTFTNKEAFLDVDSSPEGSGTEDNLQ
In words: CHT inhibitors, dose response, cell-based, 5-point CRC, membrane potential dye (AID 504840). It is filed as functional.

Test [11] deals with T3, High affinity choline transporter 1. In words: CHT inhibitors, dose response, cell-based, 10-point CRC, membrane potential dye (AID 588401).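 Note: membrane potential dye fluorescence of choline-evoked depolarization via CHT.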 Type of test: functional.
The target of test [12] is E3 ubiquitin-protein ligase Mdm2 (Homo sapiens, UniProt Q00987). In words: enhancers of MDM2-luciferase reporter signal, concentration-effect titration, project on inhibitors of MDM2 ubiquitin ligase, cellular assay, luminescent readout, 384-well plate format (AID 1394).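 Note: MDM2 E3 inhibitors raise luminescence so EC50 is for signal enhancement.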 It is filed as functional. On the technique in general: A reporter such as luciferase makes a cellular process visible.
Sequence of E3 ubiquitin-protein ligase Mdm2 (Q00987 whole entry): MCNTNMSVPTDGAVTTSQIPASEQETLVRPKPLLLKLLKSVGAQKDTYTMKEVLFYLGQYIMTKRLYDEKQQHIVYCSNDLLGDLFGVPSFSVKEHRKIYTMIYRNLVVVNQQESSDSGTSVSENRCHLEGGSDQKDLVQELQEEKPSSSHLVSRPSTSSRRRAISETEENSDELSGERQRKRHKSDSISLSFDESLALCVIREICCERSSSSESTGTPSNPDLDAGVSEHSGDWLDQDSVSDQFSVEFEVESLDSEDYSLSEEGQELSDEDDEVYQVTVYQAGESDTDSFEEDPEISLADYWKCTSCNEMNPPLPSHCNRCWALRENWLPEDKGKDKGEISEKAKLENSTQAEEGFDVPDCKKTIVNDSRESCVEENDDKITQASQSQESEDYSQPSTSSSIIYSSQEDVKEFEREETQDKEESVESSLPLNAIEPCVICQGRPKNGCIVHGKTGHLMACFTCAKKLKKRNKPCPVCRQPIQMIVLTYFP

Test [13] has as its target T1, Bcl-2-related protein A1. In words: Bfl-1 binding inhibitors, SAR follow-up, biochemical, fluorescence polarization (AID 1070). (Fluorescence polarisation rises when a labelled molecule tumbles more slowly, as on binding a larger partner.)
The nature of test [14]: M. tuberculosis growth inhibition, HTS (AID 449762). Type of test: functional.
A short description of test [15]: CRF-BP/CRF-R2 complex antagonists, dose response, cell-based, uHTS hits, 384-well (AID 651639). Type of test: functional, Homo sapiens. The conditions noted are these: read-out: IC50_Mean.
Test [16] concerns the target T4, Corticotropin-releasing factor receptor 2/Corticotropin-releasing factor-binding protein (Homo sapiens, UniProt P24387+Q13324).
T4 sequence (Q13324 whole entry): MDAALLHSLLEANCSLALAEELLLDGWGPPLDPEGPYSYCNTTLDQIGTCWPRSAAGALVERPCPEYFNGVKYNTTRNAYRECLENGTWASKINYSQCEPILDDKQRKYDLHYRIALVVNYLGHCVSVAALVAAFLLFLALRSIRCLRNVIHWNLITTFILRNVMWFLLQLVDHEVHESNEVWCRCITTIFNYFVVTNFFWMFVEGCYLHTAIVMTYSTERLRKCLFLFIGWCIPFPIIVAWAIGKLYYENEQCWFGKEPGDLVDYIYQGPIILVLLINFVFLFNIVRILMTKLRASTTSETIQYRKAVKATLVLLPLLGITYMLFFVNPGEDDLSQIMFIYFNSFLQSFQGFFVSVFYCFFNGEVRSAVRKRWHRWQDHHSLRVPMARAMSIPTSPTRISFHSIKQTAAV
T4 sequence (P24387 whole entry): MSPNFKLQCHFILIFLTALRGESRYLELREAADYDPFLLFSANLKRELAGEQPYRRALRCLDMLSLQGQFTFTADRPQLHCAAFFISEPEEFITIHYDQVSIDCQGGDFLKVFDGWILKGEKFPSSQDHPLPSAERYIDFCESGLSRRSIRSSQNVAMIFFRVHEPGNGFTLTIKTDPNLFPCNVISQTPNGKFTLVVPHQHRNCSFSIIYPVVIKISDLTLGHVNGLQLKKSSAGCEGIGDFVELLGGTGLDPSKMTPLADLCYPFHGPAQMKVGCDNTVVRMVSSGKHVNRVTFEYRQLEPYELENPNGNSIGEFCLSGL
In words: activators of CRF receptor 2 with binding protein – uHTS hits, confirmation (AID 602473). It is filed as functional. The conditions noted are these: read-out: EC50_Mean.

Test [17] deals with T4, Corticotropin-releasing factor receptor 2/Corticotropin-releasing factor-binding protein. The experiment in a line: Dose Response confirmation of uHTS hits for small molecule antagonists of the CRF-binding protein and CRF-R2 receptor complex. The conditions noted are these: read-out: IC50_Mean. Type of test: functional.
The next test addresses Caspase-6 (Homo sapiens, UniProt P55212). The experiment in a line: human caspase-6 inhibitors, dose response, biochemical, VEID-R110 fluorescence, cherry-pick (AID 720632).
In test [18] the target is Photoreceptor-specific nuclear receptor (Homo sapiens, UniProt Q9Y5X4). It is filed as functional, cell-based.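 Note: CHO-S cells with Gal4-NCOR and VP16-NR2E3 two-hybrid luciferase reporter.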
Sequence of Photoreceptor-specific nuclear receptor (Q9Y5X4 whole entry, the tested form may be a part): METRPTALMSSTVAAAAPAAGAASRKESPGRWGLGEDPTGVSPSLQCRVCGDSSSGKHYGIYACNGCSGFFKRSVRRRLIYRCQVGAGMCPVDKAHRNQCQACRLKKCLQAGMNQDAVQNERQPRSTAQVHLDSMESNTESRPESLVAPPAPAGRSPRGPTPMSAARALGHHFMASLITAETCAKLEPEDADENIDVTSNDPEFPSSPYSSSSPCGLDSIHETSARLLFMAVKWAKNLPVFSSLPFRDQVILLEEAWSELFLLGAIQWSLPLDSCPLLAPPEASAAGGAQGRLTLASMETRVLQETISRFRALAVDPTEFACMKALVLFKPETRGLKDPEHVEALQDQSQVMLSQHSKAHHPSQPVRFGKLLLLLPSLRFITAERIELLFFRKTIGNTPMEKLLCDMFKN
Test [19] in a line: HEK293T cell cytotoxicity, dose response, cytotoxicity control, CellTiter-Glo luminescence, dry powder, set 20 (AID 1117293). It is filed as functional, cell-based. The conditions noted are these: HEK293.
The nature of test [20]: HepG2 cell cytotoxicity, dose response, cytotoxicity control, plate reader, dry powder, set 6 (AID 743311). It is filed as functional, cell-based.
Test [21] can be described thus: A549 cell cytotoxicity, dose response, cytotoxicity control, plate reader, dry powder, set 6 (AID 743312). It is filed as functional, cell-based.
Another test in a line: cells. To be noted: HEK293.

Sequence of Mitogen-activated protein kinase 10 (P53779 whole entry): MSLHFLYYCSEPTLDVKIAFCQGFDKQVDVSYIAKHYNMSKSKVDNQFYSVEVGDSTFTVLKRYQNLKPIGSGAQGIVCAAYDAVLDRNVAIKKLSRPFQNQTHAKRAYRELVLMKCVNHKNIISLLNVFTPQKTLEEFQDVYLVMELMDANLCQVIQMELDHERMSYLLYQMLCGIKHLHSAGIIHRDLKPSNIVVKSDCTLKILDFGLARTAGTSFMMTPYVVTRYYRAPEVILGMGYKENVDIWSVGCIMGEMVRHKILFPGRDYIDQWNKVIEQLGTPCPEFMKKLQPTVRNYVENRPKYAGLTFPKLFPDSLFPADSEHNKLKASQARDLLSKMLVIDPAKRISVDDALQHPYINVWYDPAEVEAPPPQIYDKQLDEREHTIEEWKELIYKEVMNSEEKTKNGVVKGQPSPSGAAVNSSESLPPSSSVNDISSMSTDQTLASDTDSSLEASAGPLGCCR
Sequence of Bifunctional protein GlmU (P9WMN3 whole entry): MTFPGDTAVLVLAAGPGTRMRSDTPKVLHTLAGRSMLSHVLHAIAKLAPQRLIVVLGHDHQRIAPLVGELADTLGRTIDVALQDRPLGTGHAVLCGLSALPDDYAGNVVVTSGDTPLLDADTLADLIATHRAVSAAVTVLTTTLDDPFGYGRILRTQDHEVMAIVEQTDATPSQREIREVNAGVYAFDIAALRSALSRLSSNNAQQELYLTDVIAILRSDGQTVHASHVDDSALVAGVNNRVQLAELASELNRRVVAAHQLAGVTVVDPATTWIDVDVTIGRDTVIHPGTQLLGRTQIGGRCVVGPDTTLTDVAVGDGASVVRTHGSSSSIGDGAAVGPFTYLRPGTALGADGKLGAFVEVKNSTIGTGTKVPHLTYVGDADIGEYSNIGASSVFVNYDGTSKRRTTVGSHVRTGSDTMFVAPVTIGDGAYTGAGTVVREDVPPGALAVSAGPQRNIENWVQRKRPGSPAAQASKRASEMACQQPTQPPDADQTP
Sequence of Melanin-concentrating hormone receptor 1 (Q99705 whole entry): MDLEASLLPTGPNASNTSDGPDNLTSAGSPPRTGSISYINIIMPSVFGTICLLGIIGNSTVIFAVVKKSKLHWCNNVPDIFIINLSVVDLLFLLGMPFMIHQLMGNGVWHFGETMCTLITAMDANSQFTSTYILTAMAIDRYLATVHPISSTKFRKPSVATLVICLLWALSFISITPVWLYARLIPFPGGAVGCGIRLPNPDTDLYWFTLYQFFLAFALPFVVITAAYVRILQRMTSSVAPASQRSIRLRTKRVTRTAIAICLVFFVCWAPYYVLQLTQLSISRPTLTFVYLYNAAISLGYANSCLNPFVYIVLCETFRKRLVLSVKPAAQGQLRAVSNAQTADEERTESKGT
Sequence of Caspase-6 (P55212 24-179 limits assumed): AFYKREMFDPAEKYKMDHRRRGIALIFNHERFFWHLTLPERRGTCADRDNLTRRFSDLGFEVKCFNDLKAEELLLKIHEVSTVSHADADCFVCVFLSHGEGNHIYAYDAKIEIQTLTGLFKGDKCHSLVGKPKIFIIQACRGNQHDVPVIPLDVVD
Sequence of Caspase-6 (P55212 194-293 limits assumed): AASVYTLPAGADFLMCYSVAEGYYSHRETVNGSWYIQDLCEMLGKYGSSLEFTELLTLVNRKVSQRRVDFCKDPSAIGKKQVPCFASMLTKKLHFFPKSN

Regarding `Cc1nccc(O)c1OCc1ccc(Cl)cc1`, the IC50 in [1] was > 109 µM (inactive); in [2] it was > 83.3 µM (inactive).
As to `Cc1cc(C)c2c3c(c(-c4ccccc4)n2n1)c(=O)n(C)c(=O)n3C`, the IC50 at Bcl-2-related protein A1 [3] and against Bcl-2-related protein A1 [4] was > 100 µM (not active) throughout.
Consider `Cc1nc(Nc2ccc(C(=O)O)cc2)nc(Nc2ccc(C(=O)O)cc2)c1[N+](=O)[O-]`, for which the IC50 in [5] is 211 µM (active).
For the compound `O=C(Nc1ccc(F)cc1)c1sc(-c2ccccc2)nc1C(F)(F)F`, the IC50 in test [6] is recorded as > 30 µM (not active).
In the case of `CN1C(=O)C(Cc2c[nH]c3ccccc23)C(=O)N(C)C1=O`, at 14-3-3 protein gamma, the IC50 is recorded as > 50 µM (not active).
For the compound `CC(=O)Oc1ccc(C(=O)Nc2nccs2)cc1`, the IC50 in test [7] is listed as > 31 µM (not active).
The CC50 is the concentration giving 50% cytotoxicity. On to `CC1CC(C)CN(C(=O)CSc2nc3ccccc3c(=O)n2-c2ccc(F)cc2)C1` (stereo unspecified), for which, in the test on Vero, the CC50 was > 100 µM (active).
On to `CCC(C)(C(=O)NC1CCCC1)N(Cc1ccco1)C(=O)c1ccc2c(c1)OCO2` (stereo unspecified), for which the IC50 in test [8] and in test [9] was > 43.8 µM (not active) in each case.
For `CCOC(=O)c1sc(=S)n(-c2ccccc2)c1N(C(C)=O)C(C)=O`, the IC50 in [10] was 8.98 µM (active); in test [11], 5.01 µM (active). Further, the EC50 in test [12] is 0.29 µM (not active).
As for `Cc1ccc(-n2nnc(-c3cc4ccccc4nc3Cl)n2)cc1`, the IC50 on Bcl-2-related protein A1 [3] and at Bcl-2-related protein A1 [13] was > 100 µM (not active) throughout.
As to `CCOC(=O)c1ccc(NC(=O)CSc2ccc(-c3cccnc3)nn2)cc1`, in test [14], the IC50 was > 100 µM (active).
One may read the AC50 as the midpoint of the concentration-response curve, whichever way the signal moves. Regarding `CC(C)c1ccc(C(c2c(O)oc3ccccc3c2=O)c2c(O)oc3ccccc3c2=O)cc1`, the IC50 in test [15] is 5.18 µM (active); in [17], 3.45 µM (active); in test [18], 0.975 µM (active). Further, the EC50 in test [16] is > 53 µM (inactive). The AC50 on Caspase-6 was 6.05 µM (active).
`N#Cc1ccc(S(=O)(=O)Nc2cc(C(F)(F)F)ccc2N2CCCCC2)cc1`: the AC50 in test [19] is 46.1 µM (active).
As for `Cc1cc2ncn(CCOc3ccc4c(c3)CCC4)c2cc1C`, the AC50 in [20] is > 52 µM (inactive); in test [21], 24.1 µM (active); in “cells”, 33 µM (active).
